Where “and” joins values, the source holds several entries; their conditions need not be identical. Equal values may be shown once. Read-outs that look alike come from different tables or passages of the source.
Key:
[1] = tested on: 60 cancer cell lines (NCI 60 cancer cell line series); experiment: NCI-DTP in vitro cancer screen, sulforhodamine B (SRB) growth inhibition, 48 hour exposure; assay type: cell-based, human; set-up: key to sensitivity class Ovarian OVCAR-8 CL6005 / sensitivity class Ovarian SK-OV-3 CL6011 / sensitivity class Prostate DU-145 CL11003 / sensitivity class NSCLC NCI-H522 CL1003 / sensitivity class Ovarian IGROV1 CL6010 / sensitivity class Ovarian OVCAR-4 CL6002 / sensitivity class Prostate PC-3(I) CL11001 / sensitivity class Renal A498 CL9013 / sensitivity class Renal SN12C CL9008: sensitivity class: 1 = Low, 2 = Medium, 3 = High; conditions: for sensitivity class NSCLC NCI-H23(I) CL1001: cell line NSCLC NCI-H23(I); for sensitivity class NSCLC NCI-H460 CL1021: cell line NSCLC NCI-H460, CL1021; for sensitivity class NSCLC NCI-H522 CL1003: cell line NSCLC NCI-H522, CL1003; for sensitivity class Ovarian IGROV1 CL6010: cell line Ovarian IGROV1, CL6010; for sensitivity class Ovarian OVCAR-4 CL6002: cell line Ovarian OVCAR-4, CL6002; for sensitivity class Ovarian OVCAR-5 CL6003: cell line Ovarian OVCAR-5, CL6003; for sensitivity class Ovarian OVCAR-8 CL6005: cell line Ovarian OVCAR-8, CL6005; for sensitivity class Prostate DU-145 CL11003: cell line Prostate DU-145, CL11003
Procedure: Cancer Cell Line Preparation. Sixty cancer cell lines were obtained from the National Cancer Institute Developmental Therapeutics Program (NCI-DTP). Procedures for growing cells and testing compounds have been described previously (Scudiero et al., Cancer Res. 1988, 48:4827-4833; Stinson et al., Anticancer Res.; Myers et al., Electrophoresis 1997, 18:647-653). Cells are plated on day 0 at a density individualized for each cell line so that they will generally be sub-confluent at the end of the assay period. On day 1, a compound is added in the format for a duplicate-well, 5-dose, ten-fold interval dose response study.
No-drug, no-cell and no-growth controls are included. On day 3 the cells are processed for staining with sulforhodamine B (SRB), which reflects the amount of cell mass present at the end of a 48 hour exposure to the test agent. From dose response curves based on the SRB data, various parameters can be determined. The one used in the present study is the G15o, defined as the concentration of compound required to inhibit growth of the cell line by 50%. More precisely, the quantity used in the calculation to be described is the potency measure -log{GI50}.
Activity database (A). Table IA, consisting of the growth inhibition (GI5o) values for the 60 cell lines and 24 compounds, was created from the NCI-DTP in vitro cancer screen database. This subset of compounds was selected from the larger 23,000 compound database available from the DTP. The compounds were selected on the basis of their known mechanism of action and chemical structure. The average potency—log{GI50} was extracted from the comma-delimited text files available through the Web at http://www.nci.nih.gov/intra/lmp/jnwbio.htmrl. Subsequently, these log{GI5o} values were inspected manually and classified as indicating either Low, Medium or High sensitivity to each compound.

[2] = tested on: 60 cancer cell lines (NCI 60 cancer cell line series); conditions: cited from earlier work

N.N.[Cl][Pt][Cl] [cisplatin, cis-Diamminedichloroplatinum (II), reference compound]
5.2: -Log (GI50) ([2]; Ovarian SK-OV-3 CL6011)
1: classification of cell line as Low(1), Medium(2) or High(3) sensitivity to compound ([1]; Breast MDA-MB-231 CL5005) | classification of cell line as Low(1), Medium(2) or High(3) sensitivity to compound ([1]; Breast T-47D (CL5014)) | classification of cell line as Low(1), Medium(2) or High(3) sensitivity to compound ([1]; Colon COLO-250 CL4010) | classification of cell line as Low(1), Medium(2) or High(3) sensitivity to compound ([1]; Colon HCT-15 CL4015) | classification of cell line as Low(1), Medium(2) or High(3) sensitivity to compound ([1]; Colon HT29(I) CL4001) | sensitivity class Renal A498 CL9013 ([1]; cell line Renal A498, CL9013)
5.5: -Log (GI50) ([2]; Breast MCF7(I) (CL5001))
3: classification of cell line as Low(1), Medium(2) or High(3) sensitivity to compound ([1]; CNS SF-268 CL12014) | classification of cell line as Low(1), Medium(2) or High(3) sensitivity to compound ([1]; Leukemia HL-60(I) (CL7008)) | classification of cell line as Low(1), Medium(2) or High(3) sensitivity to compound ([1]; Melanoma LOX IMVI CL10001) | sensitivity class NSCLC NCI-H23(I) CL1001 [1] | sensitivity class NSCLC NCI-H460 CL1021 [1]
2: classification of cell line as Low(1), Medium(2) or High(3) sensitivity to compound ([1]; Breast BT-549 (CL5013)) | classification of cell line as Low(1), Medium(2) or High(3) sensitivity to compound ([1]; Breast HS-578T CL5006) | classification of cell line as Low(1), Medium(2) or High(3) sensitivity to compound ([1]; Breast MCF7/ADRr (CL5002)) | classification of cell line as Low(1), Medium(2) or High(3) sensitivity to compound ([1]; Breast MDA-N CL5012) | classification of cell line as Low(1), Medium(2) or High(3) sensitivity to compound ([1]; CNS SF-539 CL12016) | classification of cell line as Low(1), Medium(2) or High(3) sensitivity to compound ([1]; CNS SNB-75(I) CL12005) | classification of cell line as Low(1), Medium(2) or High(3) sensitivity to compound ([1]; CNS U251(I) CL12009) | classification of cell line as Low(1), Medium(2) or High(3) sensitivity to compound ([1]; Colon HCC-2998 (CL4002)) | classification of cell line as Low(1), Medium(2) or High(3) sensitivity to compound ([1]; Colon SW-620 (CL4009)) | classification of cell line as Low(1), Medium(2) or High(3) sensitivity to compound ([1]; Leukemia K562(I) CL7005) | classification of cell line as Low(1), Medium(2) or High(3) sensitivity to compound ([1]; Leukemia RPMI-8226(I) (CL7010)) | classification of cell line as Low(1), Medium(2) or High(3) sensitivity to compound ([1]; Melanoma M14 (CL10014)) | sensitivity class NSCLC NCI-H522 CL1003 [1] | sensitivity class Ovarian IGROV1 CL6010 [1] | sensitivity class Ovarian OVCAR-4 CL6002 [1] | sensitivity class Ovarian OVCAR-5 CL6003 [1] | sensitivity class Ovarian OVCAR-8 CL6005 [1] | sensitivity class Prostate DU-145 CL11003 [1] | sensitivity class Renal RXF-393 CL9016 ([1]; cell line Renal RXF-393, CL9016) | sensitivity class Renal UO-31 CL9004 ([1]; cell line Renal UO-31, CL9004)

OC[C@H]1O[C@@H](n2cnc3c2N=CNC[C@H]3O)C[C@@H]1O [2′-deoxycoformycin]
3.3: -Log (GI50) ([2]; Leukemia K562(I) CL7005) | -Log (GI50) ([2]; Leukemia RPMI-8226(I) (CL7010)) | -Log (GI50) ([2]; Melanoma LOX IMVI CL10001) | -Log (GI50) ([2]; Melanoma MALME-3M CL10002)
3.5: -Log (GI50) [2]
2 and 1 and 3: classification of cell line as Low(1), Medium(2) or High(3) sensitivity to compound [1]
3.4: -Log (GI50) ([2]; Colon SW-620 (CL4009)) | -Log (GI50) ([2]; Leukemia CCRF-CEM(I) (CL7003)) | -Log (GI50) ([2]; Leukemia HL-60(I) (CL7008)) | -Log (GI50) ([2]; Leukemia MOLT-4 (CL7006)) | -Log (GI50) ([2]; Leukemia SR CL7019) | -Log (GI50) ([2]; Melanoma M14 (CL10014))
43: 2 # of Medium [1]
8: 3 # of High [1]
9: 1 # of Low [1]
1: sensitivity class Prostate PC-3(I) CL11001 [1] | sensitivity class Renal TK10 CL9024 [1] | sensitivity class Ovarian OVCAR-5 CL6003 [1]
2: sensitivity class Renal 786-O CL9018 [1] | sensitivity class Renal A498 CL9013 [1] | sensitivity class Renal ACHN CL9023 [1] | sensitivity class Renal SN12C CL9008 [1] | sensitivity class Renal UO-31 CL9004 [1] | classification of cell line as Low(1), Medium(2) or High(3) sensitivity to compound ([1]; Colon SW-620 (CL4009)) | classification of cell line as Low(1), Medium(2) or High(3) sensitivity to compound ([1]; Leukemia CCRF-CEM(I) (CL7003)) | classification of cell line as Low(1), Medium(2) or High(3) sensitivity to compound ([1]; Leukemia HL-60(I) (CL7008)) | classification of cell line as Low(1), Medium(2) or High(3) sensitivity to compound ([1]; Leukemia K562(I) CL7005) | classification of cell line as Low(1), Medium(2) or High(3) sensitivity to compound ([1]; Leukemia MOLT-4 (CL7006)) | classification of cell line as Low(1), Medium(2) or High(3) sensitivity to compound ([1]; Leukemia RPMI-8226(I) (CL7010)) | classification of cell line as Low(1), Medium(2) or High(3) sensitivity to compound ([1]; Melanoma LOX IMVI CL10001) | classification of cell line as Low(1), Medium(2) or High(3) sensitivity to compound ([1]; Melanoma M14 (CL10014)) | classification of cell line as Low(1), Medium(2) or High(3) sensitivity to compound ([1]; Melanoma MALME-3M CL10002) | sensitivity class NSCLC NCI-H23(I) CL1001 [1] | sensitivity class NSCLC NCI-H332M CL1017 ([1]; cell line NSCLC NCI-H332M, CL1017) | sensitivity class NSCLC NCI-H460 CL1021 [1] | sensitivity class Ovarian IGROV1 CL6010 [1] | sensitivity class Ovarian OVCAR-3 CL6001 ([1]; cell line Ovarian OVCAR-3, CL6001) | sensitivity class Ovarian OVCAR-4 CL6002 [1] | sensitivity class Ovarian OVCAR-8 CL6005 [1] | sensitivity class Ovarian SK-OV-3 CL6011 ([1]; cell line Ovarian SK-OV-3, CL6011)
3: sensitivity class Renal CAKI-1 CL9015 [1] | sensitivity class Renal RXF-393 CL9016 [1] | classification of cell line as Low(1), Medium(2) or High(3) sensitivity to compound ([1]; Leukemia SR CL7019) | sensitivity class NSCLC NCI-H522 CL1003 [1] | sensitivity class Prostate DU-145 CL11003 [1]
3 and 2: sensitivity class of the cell line to the compound (1 Low, 2 Medium, 3 High) [1]
